pIC50: −log10 of the molar value.
Key:
Type in all cases: biochemical
MMP-2 = biological target: T1, MMP-2 (Homo sapiens, UniProt P08253); test: In vitro MMP-2 inhibition test
T1 construct: purchased R&D Systems 902-MP
T1 sequence (P08253 110-660): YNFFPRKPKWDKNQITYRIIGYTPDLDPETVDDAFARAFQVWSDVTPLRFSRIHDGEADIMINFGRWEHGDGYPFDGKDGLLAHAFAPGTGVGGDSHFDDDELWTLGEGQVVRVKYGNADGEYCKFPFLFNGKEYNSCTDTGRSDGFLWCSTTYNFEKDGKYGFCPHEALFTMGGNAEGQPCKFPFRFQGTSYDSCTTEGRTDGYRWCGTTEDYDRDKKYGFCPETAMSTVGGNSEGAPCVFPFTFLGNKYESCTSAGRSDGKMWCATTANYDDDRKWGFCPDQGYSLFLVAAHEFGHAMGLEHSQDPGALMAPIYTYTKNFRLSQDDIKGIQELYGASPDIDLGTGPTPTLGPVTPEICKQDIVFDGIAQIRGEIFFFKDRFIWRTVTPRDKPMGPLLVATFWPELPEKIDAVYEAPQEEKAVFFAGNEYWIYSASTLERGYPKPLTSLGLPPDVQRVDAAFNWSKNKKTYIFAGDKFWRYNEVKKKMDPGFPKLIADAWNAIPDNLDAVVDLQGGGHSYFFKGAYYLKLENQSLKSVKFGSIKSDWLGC
Excerpt: (§1) The MMP-mediated amidolytic cleavage of a suitable peptide substrate leads to an increase in fluorescent light here too. The signal intensity of the fluorescent light is directly proportional to the enzyme activity. The active concentration of a test compound at which half the enzyme is inhibited (50% signal intensity of the fluorescent light) is reported as the […].
(§2) Recombinant MMP-2 (from R&D Systems, 902-MP) is chemically activated in accordance with the manufacturer's instructions using APMA. 1 μl of the test compound to be analysed (as a solution in DMSO, suitable concentrations, for example, 1 nM to 30 μM) is pipetted into 24 μl of activated enzyme (final concentration, for example, 2 nM) in reaction buffer (50 mM Tris/HCl pH 7.5, 10 mM CaCl2, 150 mM NaCl, 0.05% Brij®-35) in a white 384-hole microtiter plate (MTP). The enzymatic reaction is started by adding the intramolecularly quenched Mca-Pro-Leu-Gly-Leu-Dpa(Dnp)-Ala-Arg-NH2 substrate (final concentration, for example, 10 μM; R&D Systems, ES-001), so as to result in a total test volume of 50 μl. The course of the MMP-2 reaction is measured by measuring the fluorescence intensity (excitation 320 nm, emission 410 nm) over a suitable period of time (for example over 120 min at a temperature of 32° C.).

MMP-16 = biological target: T2, MMP-16 (Homo sapiens, UniProt P51512); test: In vitro MMP-16 inhibition test
T2 construct: purchased R&D Systems 1785-MP
T2 sequence (P51512 120-607): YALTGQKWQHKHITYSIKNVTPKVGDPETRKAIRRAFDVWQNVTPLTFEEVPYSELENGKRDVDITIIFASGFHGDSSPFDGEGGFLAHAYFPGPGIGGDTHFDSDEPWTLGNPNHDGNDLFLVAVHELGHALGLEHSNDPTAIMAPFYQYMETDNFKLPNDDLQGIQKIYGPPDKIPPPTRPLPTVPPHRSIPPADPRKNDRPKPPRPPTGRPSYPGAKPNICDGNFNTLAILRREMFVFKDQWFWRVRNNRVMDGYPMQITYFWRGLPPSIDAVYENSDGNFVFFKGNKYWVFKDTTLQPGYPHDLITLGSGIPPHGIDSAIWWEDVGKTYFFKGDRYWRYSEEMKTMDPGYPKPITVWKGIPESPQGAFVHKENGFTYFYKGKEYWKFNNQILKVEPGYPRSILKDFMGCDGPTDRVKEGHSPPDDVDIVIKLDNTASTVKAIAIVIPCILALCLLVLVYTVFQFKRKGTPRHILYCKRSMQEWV
Excerpt: as §1
Recombinant MMP-16 (from R&D Systems, 1785-MP) is enzymatically activated in accordance with the manufacturer's instructions using recombinant furin (from R&D Systems, 1503-SE). 1 μl of the test compound to be analysed (as a solution in DMSO, suitable concentrations e.g. 1 nM to 30 μM) is pipetted into 24 μl of activated enzyme (final concentration e.g. 1 nM) in reaction buffer (50 mM Tris/HCl pH 7.5, 10 mM CaCl2, 150 mM NaCl, 0.05% Brij®-35) in a white 384-hole microtiter plate (MTP). The enzymatic reaction is started by adding the intramolecularly quenched Mca-Lys-Pro-Leu-Gly-Leu-Dpa(Dnp)-Ala-Arg-NH2 substrate (final concentration, for example, 5 μM; R&D Systems, ES-010), so as to result in a total test volume of 50 μl. The course of the MMP-16 reaction is measured by measuring the fluorescence intensity (excitation 320 nm, emission 410 nm) over a suitable period of time (for example over 120 min at a temperature of 32° C.).

MMP-14 = biological target: T3, MMP-14 (Homo sapiens, UniProt P50281); test: In vitro MMP-14 inhibition test
T3 construct: purchased R&D Systems 918-MP
Excerpt: as §1
Recombinant MMP-14 (from R&D Systems, 918-MP) is enzymatically activated in accordance with the manufacturer's instructions using recombinant furin (from R&D Systems, 1503-SE). 1 μl of the test compound to be analysed (as a solution in DMSO, suitable concentrations e.g. 1 nM to 30 μM) is pipetted into 24 μl of activated enzyme (final concentration e.g. 0.5 nM) in reaction buffer (50 mM Tris/HCl pH 7.5, 10 mM CaCl2, 150 mM NaCl, 0.05% Brij®-35) in a white 384-hole microtiter plate (MTP). The enzymatic reaction is started by adding the intramolecularly quenched Mca-Lys-Pro-Leu-Gly-Leu-Dpa(Dnp)-Ala-Arg-NH2 substrate (final concentration, for example, 5 μM; R&D Systems, ES-010), so as to result in a total test volume of 50 μl. The course of the MMP-14 reaction is measured by measuring the fluorescence intensity (excitation 320 nm, emission 410 nm) over a suitable period of time (for example over 120 min at a temperature of 32° C.).

MMP-10 = biological target: T4, MMP-10 (Homo sapiens, UniProt P09238); test: In vitro MMP-10 inhibition test
T4 construct: purchased R&D Systems 910-MP
T4 sequence (P09238 99-476): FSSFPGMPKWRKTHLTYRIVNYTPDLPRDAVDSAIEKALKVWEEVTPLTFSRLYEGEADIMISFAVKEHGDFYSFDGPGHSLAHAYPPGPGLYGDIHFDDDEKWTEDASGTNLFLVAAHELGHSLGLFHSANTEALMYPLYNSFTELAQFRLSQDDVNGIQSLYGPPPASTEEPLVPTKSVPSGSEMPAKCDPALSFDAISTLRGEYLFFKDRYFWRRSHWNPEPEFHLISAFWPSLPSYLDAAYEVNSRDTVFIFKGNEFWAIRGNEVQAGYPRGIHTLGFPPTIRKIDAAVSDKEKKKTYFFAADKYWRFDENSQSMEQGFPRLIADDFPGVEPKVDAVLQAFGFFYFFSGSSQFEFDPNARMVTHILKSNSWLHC
Excerpt: as §1
as §2, with “MMP-10” for “MMP-2”, “910-MP)” for “902-MP)”, “Mca-Arg-Pro-Lys-Pro-Val-Glu-Nval-Trp-Arg-Lys(Dnp)-NH2” for “Mca-Pro-Leu-Gly-Leu-Dpa(Dnp)-Ala-Arg-NH2”, “ES-002),” for “ES-001),”

mouse MMP-8 = biological target: T5, mouse MMP-8 (Mus musculus, UniProt O70138); test: In vitro mouse MMP-8 inhibition test
T5 construct: purchased R&D Systems 2904-MP
T5 sequence (O70138 101-465): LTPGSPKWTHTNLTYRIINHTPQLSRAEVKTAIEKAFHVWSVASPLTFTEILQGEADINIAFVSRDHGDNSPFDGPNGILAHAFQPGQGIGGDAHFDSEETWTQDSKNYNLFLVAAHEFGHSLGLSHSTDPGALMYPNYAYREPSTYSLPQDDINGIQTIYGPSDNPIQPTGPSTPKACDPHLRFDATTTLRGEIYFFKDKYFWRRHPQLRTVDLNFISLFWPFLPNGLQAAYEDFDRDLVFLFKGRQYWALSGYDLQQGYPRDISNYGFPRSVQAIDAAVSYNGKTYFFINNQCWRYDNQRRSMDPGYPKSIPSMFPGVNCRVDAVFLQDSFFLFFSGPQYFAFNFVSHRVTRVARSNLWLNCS

| Compound | pIC50 (MMP-2) | pIC50 (MMP-16) | pIC50 (MMP-14) | pIC50 (MMP-10) | pIC50 (mouse MMP-8) |
| --- | --- | --- | --- | --- | --- |
| O=C(O)[C@@H]1[C@@H](Cn2nnc3ccc(C(F)(F)F)cc3c2=O)CC[C@H]1C(=O)c1ccc(SCC2CCOCC2)cc1 (single isomer, unassigned) [Example 15, (+)-(1RS,2SR,5RS)-2-{[4-Oxo-6-(trifluoromethyl)-1,2,3-benzotriazin-3(4H)-yl]methyl}-5-{4-[(tetrahydro-2H-pyran-4-ylmethyl)sulphanyl]benzoyl}cyclopentanecarboxylic acid] | 6.48 | 6.12 | 6.82 | 8.05 | – |
| Cc1ccc2nnn(C[C@H]3CC[C@@H](C(=O)c4ccc(OCCC5CCOCC5)cc4)[C@@H]3C(=O)O)c(=O)c2c1 (single isomer, unassigned) [Example 20, (+)-(1RS,2SR,5RS)-2-[(6-Methyl-4-oxo-1,2,3-benzotriazin-3(4H)-yl)methyl]-5-{4-[2-(tetrahydro-2H-pyran-4-yl)ethoxy]benzoyl}cyclopentanecarboxylic acid] | 6.52 | 5.51 | 6.00 | 7.51 | 7.34 |
| O=C(O)[C@H]1[C@H](Cn2nnc3ccccc3c2=O)CC[C@@H]1C(=O)c1ccc(OCCC2CCOCC2)cc1 (stereo in doubt) [Example 4, (+/−)-(1RS,2SR,5RS)-2-[(4-Oxo-1,2,3-benzotriazin-3(4H)-yl)methyl]-5-{4-[2-(tetrahydro-2H-pyran-4-yl)ethoxy]benzoyl}cyclopentanecarboxylic acid] | 6.44 | 5.15 | 5.57 | 6.77 | 6.43 |
| O=C(O)[C@H]1[C@H](Cn2nnc3ccccc3c2=O)CC[C@@H]1C(=O)c1ccc(OCC2CCOCC2)cc1 (stereo in doubt) [Example 1, (+/−)-(1RS,2SR,5RS)-2-[(4-Oxo-1,2,3-benzotriazin-3(4H)-yl)methyl]-5-[4-(tetrahydro-2H-pyran-4-ylmethoxy)benzoyl]cyclopentanecarboxylic acid] | 6.85 | 5.82 | 6.80 | 6.92 | 7.40 |
| (+)-(1RS,2SR,5RS)-2-{[4-Oxo-6-(trifluoromethyl)-1,2,3-benzotriazin-3(4H)-yl]methyl}-5-[4-(tetra-hydro-2H-pyran-4-ylmethoxy)benzoyl]cyclopentanecarboxylic acid [Example 8] | 6.85 | 6.55 | 7.00 | 7.92 | – |
| O=C(O)[C@H]1[C@H](Cn2nnc3ccc(C(F)(F)F)cc3c2=O)CC[C@@H]1C(=O)c1ccc(OCC2CCOCC2)cc1 (racemic) [Example 7, (+/−)-(1RS,2SR,5RS)-2-{[4-Oxo-6-(trifluoromethyl)-1,2,3-benzotriazin-3(4H)-yl]methyl}-5-[4-(tetrahydro-2H-pyran-4-ylmethoxy)benzoyl]cyclopentanecarboxylic acid] | 6.42 | 6.08 | 6.77 | 4.96 | – |
| O=C(O)[C@@H]1[C@@H](Cn2nnc3ccc(C(F)(F)F)cc3c2=O)CC[C@H]1C(=O)c1ccc(OCCC2CCOCC2)cc1 (single isomer, unassigned) [Example 11, (+)-(1RS,2SR,5RS)-2-{[4-Oxo-6-(trifluoromethyl)-1,2,3-benzotriazin-3(4H)-yl]methyl}-5-{4-[2-(tetrahydro-2H-pyran-4-yl)ethoxy]benzoyl}cyclopentanecarboxylic acid] | 6.29 | 5.42 | 5.92 | 7.74 | 7.47 |
| O=C(O)[C@H]1[C@H](Cn2nnc3ccc(C(F)(F)F)cc3c2=O)CC[C@@H]1C(=O)c1ccc(OCCC2CCOCC2)cc1 (stereo in doubt) [Example 10, (+/−)-(1RS ,2S R,5RS)-2-{[4-Oxo-6-(trifluoromethyl)-1,2,3-benzotriazin-3(4H)-yl]methyl}-5-{4-[2-(tetrahydro-2H-pyran-4-yl)ethoxy]benzoyl}cyclopentanecarboxylic acid] | 6.66 | 5.74 | 6.22 | 5.29 | 7.85 |
| O=C(O)[C@@H]1[C@@H](Cn2nnc3ccccc3c2=O)CC[C@H]1C(=O)c1ccc(OCC2CCOCC2)cc1 (stereo in doubt) [Example 2, (+)-(1RS,2SR,5RS)-2-[(4-Oxo-1,2,3-benzotriazin-3(4H)-yl)methyl]-5-[4-(tetrahydro-2H-pyran-4-ylmethoxy)benzoyl]cyclopentanecarboxylic acid] | 7.22 | 6.26 | 7.00 | 7.10 | 7.68 |
| Cc1ccc2nnn(C[C@@H]3CC[C@H](C(=O)c4ccc(OCCC5CCOCC5)cc4)[C@H]3C(=O)O)c(=O)c2c1 (racemic) [Example 19, (+/−)-(1RS,2SR,5RS)-2-[(6-Methyl-4-oxo-1,2,3-benzotriazin-3(4H)-yl)methyl]-5-{4-[2-(letrahydro-2H-pyran-4-yl)ethoxy]benzoyl}cyclopentanecarboxylic acid] | 6.03 | 5.60 | 5.57 | 7.24 | 6.82 |
| O=C(O)[C@@H]1[C@@H](Cn2nnc3ccccc3c2=O)CC[C@H]1C(=O)c1ccc(OCCC2CCOCC2)cc1 (single isomer, unassigned) [Example 5, (+)-(1RS,2SR,5RS)-2-[(4-Oxo-1,2,3-benzotriazin-3(4H)-yl)methyl]-5-{4-[2-(tetrahydro-2H-pyran-4-yl)ethoxy]benzoyl}cyclopentanecarboxylic acid] | 7.36 | 6.03 | 6.60 | 7.89 | 7.27 |

— US20170114049A1, “2,5-DISUBSTITUTED CYCLOPENTANE CARBOXYLIC ACIDS FOR THE TREATMENT OF RESPIRATORY TRACT DISEASES” (BAYER PHARMA AKTIENGESELLSCHAFT, priority 2014, published 2017)
